# Source: article PMC7782785, “Outer-membrane-acting peptides and lipid II-targeting antibiotics cooperatively kill Gram-negative pathogens” (Communications Biology, 2021)
# Experiments:
# [1] = system: P. aeruginosa PA14; test: Murine abscess model; type: in vivo, BALB/c mice
# Method: An overnight P. aeruginosa PA14 culture was inoculated into fresh LB medium (100-fold dilution) and grown until an OD600 of 1.0. The culture was washed twice and resuspended in 0.9% NaCl to 10^8 CFU/mL. Four groups of five 6-week-old female BALB/c mice were used. […] After 24 h, the mice were sacrificed and the abscesses were excised to count the CFU. The bacterial loads were determined by serial dilution and plating. All animal experiments complied with the US and Chinese national guidelines for the use of animals in research. The protocol was approved by the Animal Care and Use Committee of the College of Life Sciences, Nankai University (permission number NK-04-2012). All procedures involving animals were performed after animals were anesthetized. The experimental results were analyzed with the GraphPad Prism software.
# [2] = system: K. pneumoniae ATCC700603; test: Synergy test, checkerboard broth microdilution; type: cell-based
# Method: (§1) For the synergy test, standard checkerboard broth microdilution assays were conducted to test the synergistic effect of combined antimicrobials using the same condition as before[51],[56]. […] The initial concentration of both peptides was their individual MIC. 50 µL fresh bacterial suspension prepared as above was added to the wells already containing the antimicrobial compound mixture to achieve 100 µL final volume per well.
# (§2) The fractional inhibitory concentration (FIC) indices[57] were calculated using the formula FICI = FICa + FICb = MICac/MICa + MICbc/MICb, to determine whether the combination is additive, synergistic or antagonistic[51],[57]. The MICa and MICb is the MIC of compound A or B alone, respectively. MICac is the MIC of compound A in combination with compound B and MICbc is the MIC of compound B when it was combined with compound A. The FIC corresponds to the MIC of a compound in combination with the other compound, divided by the MIC of the compound alone. FICa is FIC of compound A while FICb is FIC of compound B. The FICI was interpreted according to EUCAST[58] as follows: synergistic, FICI ≤ 0.5; additive,0.5 < FICI ≤ 1; indifferent, 1 < FICI < 2; antagonistic, FICI ≥ 2.
# [3] = system: A. baumannii ATCC BAA-1605; type: cell-based; details: checkerboard
# Method: as §1, §2
# [4] = system: P. aeruginosa PA14; type: cell-based; details: checkerboard
# Method: as §1, §2
# [5] = system: A. baumannii B2026; type: cell-based; details: checkerboard
# Method: as §1, §2
# [6] = system: K. pneumoniae B1945; type: cell-based; details: checkerboard
# Method: as §1, §2
# [7] = system: E. coli B1927; type: cell-based; details: checkerboard
# Method: as §1, §2
# [8] = system: E. coli ATCC BAA-2452; type: cell-based; details: checkerboard
# Method: as §1, §2
# [9] = system: P. aeruginosa ATCC BAA-2108; type: cell-based; details: checkerboard
# Method: as §1, §2
# [10] = system: P. aeruginosa ATCC 27853; type: cell-based; details: checkerboard
# Method: as §1, §2
# [11] = system: A. baumannii ATCC 17978; type: cell-based; details: checkerboard
# Method: as §1, §2
# [12] = system: E. coli ATCC 25922; type: cell-based; details: checkerboard
# Method: as §1, §2
# [13] = system: P. aeruginosa B1954; type: cell-based; details: checkerboard
# Method: as §1, §2
# [14] = system: K. pneumoniae ATCC BAA-2524; type: cell-based; details: checkerboard
# Method: as §1, §2
# [15] = system: K. pneumoniae LMG 20218; test: Antimicrobial activity in blood (ex vivo bacteremia model); type: cell-based; details: human blood, 10^8 CFU/mL inoculum, 37 °C, alone or (combination) with 4 µM D-11, triplicate
# Method: Briefly, blood from healthy donors was obtained from Sanquin (certified Dutch organization responsible for meeting the need in healthcare for blood and blood products, https://www.sanquin.nl/) and infected with 10^8 CFU/mL of K. pneumoniae LMG 20218. […] At 1, 2, 4, and 6 h 100 µL samples were taken from each one of the tubes and decimal serially diluted in PBS. Drops of 10 µL of each one of the dilutions were spotted on LB agar medium to follow the development of the infection. The experiment was performed in triplicate. Non-infected blood, infected blood, and blood plus peptide were used as a control.
# [16] = system: human red blood cells (hRBCs); test: Hemolytic activity
# Method: Hemolytic activity was determined with fresh human red blood cells (hRBCs)[28]. The hRBCs were centrifuged (1000×g, 5 min) and the supernatant was discarded. The pellets were washed three times with PBS and diluted in PBS to make the cell stock solution with a cell density of 2*10^8 cells/mL. […] 1% Triton X-100 and PBS were used as controls. The cells were incubated at 37 °C for 1 h and centrifuged at 2000 rpm for 5 min. The supernatant was transferred to a new 96-well plate and hemolysis was monitored by measuring the absorbance at 450 nm (OD450). Hemolysis levels were calculated as percentage. % hemolysis = 100 × (As−A0)/(At−A0), where As, A0, and At are the absorbance of the hRBCs suspension in PBS with antimicrobial agents (As), without antimicrobial agents (A0), and with 1% Triton X-100 (At). […] For the TI calculation (TI = MHC/GM), other factors as the GM (geometric mean of MIC value of all the Gram-negative strains tested) were calculated.
structure (smiles),measurement,setting,value
CN[C@H](CC(C)C)C(=O)N[C@H]1C(=O)N[C@@H](CC(N)=O)C(=O)N[C@H]2C(=O)N[C@H]3C(=O)N[C@H](C(=O)N[C@H](C(=O)O)c4cc(O)cc(O)c4-c4cc3ccc4O)[C@H](O)c3ccc(c(Cl)c3)Oc3cc2cc(c3O[C@@H]2O[C@H](CO)[C@@H](O)[C@H](O)[C@H]2O[C@H]2C[C@](C)(N)[C@H](O)[C@H](C)O2)Oc2ccc(cc2Cl)[C@H]1O [Vancomycin],log10 CFU per abscess,"[1]; mouse 1 of 5, P. aeruginosa PA14 s.c., treatment injected into infection area 1 h post-infection, 24 h, vancomycin 3 mg/kg, D-11 10 mg/kg, or both",8.341 log10 CFU per abscess
same,log10 CFU per abscess,"[1]; mouse 2 of 5, same conditions",7.354 log10 CFU per abscess
same,log10 CFU per abscess,"[1]; mouse 3 of 5, same conditions",7.321 log10 CFU per abscess
same,log10 CFU per abscess,"[1]; mouse 4 of 5, same conditions",7.43 log10 CFU per abscess
same,log10 CFU per abscess,"[1]; mouse 5 of 5, same conditions",7.5121 log10 CFU per abscess
same,MICAB: MIC of vancomycin in combination with D-11 at the MICAC concentration,[2],11.04 µM
same,MICAB: MIC of vancomycin in combination with D-11 at the MICAC concentration,[3],2.76 µM
same,MICAB: MIC of vancomycin in combination with D-11 at the MICAC concentration,[4],32 µM
same,MICAB: MIC of vancomycin in combination with D-11 at the MICAC concentration,[5],2.76 µM
same,MICAB: MIC of vancomycin in combination with D-11 at the MICAC concentration,[6],11.04 µM
same,MICAB: MIC of vancomycin in combination with D-11 at the MICAC concentration,[7],5.52 µM
same,MICAB: MIC of vancomycin in combination with D-11 at the MICAC concentration,[8],2.76 µM
same,MICAB: MIC of vancomycin in combination with D-11 at the MICAC concentration,[9],44.15 µM
same,MICAB: MIC of vancomycin in combination with D-11 at the MICAC concentration,[10],11.04 µM
same,MICAB: MIC of vancomycin in combination with D-11 at the MICAC concentration,[11],5.52 µM
same,MICAB: MIC of vancomycin in combination with D-11 at the MICAC concentration,[12],5.52 µM
same,MICAB: MIC of vancomycin in combination with D-11 at the MICAC concentration,[13],44.15 µM
same,MICAB: MIC of vancomycin in combination with D-11 at the MICAC concentration,[14],11.04 µM
same,bacterial count in infected whole blood after 6 h,[15]; vancomycin 2 µM,10^12 CFU/mL
same,bacterial count in infected whole blood after 6 h,[15]; vancomycin 4 µM,10^12 CFU/mL
same,bacterial count in infected whole blood after 6 h,[15]; vancomycin 8 µM,10^12 CFU/mL
same,bacterial count in infected whole blood after 6 h,[15]; vancomycin 16 µM,10^10 CFU/mL
same,"HC50, concentration that causes 50% hemolysis of hRBCs",[16],> 500 µM
same,"MHA, mean hemolytic activity",[16],0%
same,"MHC, minimal hemolytic concentration that caused 10% hemolysis of hRBCs",[16],1000 µM
same,hemolysis of hRBCs,[16],did not cause any hemolysis
